Assay results: publication PMC10714399, “Open Source Antibiotics: Simple Diarylimidazoles Are Potent against Methicillin-Resistant Staphylococcus aureus” (ACS Infectious Diseases, 2023)
In brackets after ≈: the same amount, converted by molar mass. Entries after “also recorded” stand apart in the source; their conditions may differ. Like-named read-outs stand apart in the source and are kept apart here.

Tests used:
[1] = tested on: MRC-5SV2 (human lung fibroblast cell line); assay: Toxicity against MRC-5SV2; type: cell-based
Protocol: (§1) ADME and toxicity for compounds were measured according to procedures outlined in the manuscript submitted in parallel to this one;2 other procedures were used for those compounds analysed by Monash University (in vitro ADME) or UCL (toxicity), both described in the main

[2] = tested on: S. aureus ATCC 25923 (methicillin-susceptible); assay: In vitro antibacterial activity, MIC (UCL), MSSA; type: cell-based, Staphylococcus aureus; details: for MIC: Staphylococcus aureus
Summary of the method: (§2)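 Broth microdilution in isosensitest broth; inoculum from overnight tryptone soya agar culture adjusted to A600 0.1 (~1 × 10^8 CFU/mL) then diluted 1:100. Compounds tested as 2-fold series, 32 to 0.03 μg/mL, DMSO at most 2%; vancomycin as quality control.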

[3] = tested on: Staphylococcus aureus NCTC 13373 (mecA-positive; methicillin-resistant); assay: In vitro antibacterial activity, MIC (UCL School of Pharmacy assay), MRSA; type: cell-based; details: for MIC: Staphylococcus aureus
Summary of the method: as §2

[4] = tested on: PMM (primary mouse macrophages); assay: Toxicity against PMM; type: cell-based
Protocol: as §1

[5] = tested on: Enterococcus faecalis ATCC 51299 (vanA-positive; vancomycin-resistant); assay: In vitro antibacterial activity, MIC (UCL), VRE; type: cell-based
Summary of the method: as §2

HEK293 cells = assay: HEK293 toxicity, 96-well dose-response (UCL; MTT or resazurin, with or without recovery); type: cell-based, human; details: for spread of Dmax values comparing recovery and non-recovery conditions: 32 μg/mL
Protocol: (§3) The importance of balancing potency vs MRSA and cytotoxicity led us to examine a subset of compounds more thoroughly for toxicity against human embryonic kidney cell line HEK293. […] Dmax is a parameter that quantifies toxicity at the highest tested concentration (32 μg/mL for all compounds), calculated as reciprocal percentage of viable cells (100 – viability%), where cells either were allowed to recover or viability was measured immediately after treatment. […] Our efforts focused on trying to replicate the original toxicity experiments (by CO-ADD) with tamoxifen using a protocol modified for use with 96-well plates. Given the variability of protocols and results in the literature,[28] it was important to compare with a standard protocol we have reliably used in our own laboratories.[29]−[33] […] Truly “non-toxic” compounds might be expected to show Dmax < 50% for all experiment variations, e.g., 861. […] A large spread of Dmax values comparing recovery and non-recovery conditions larger than 20% is perhaps indicative of a mechanism of toxicity that persists beyond exposure, i.e., cytotoxic compounds that continue to induce toxicity as cells recover and restart dividing, for example, compounds 865, 870, 871, 980, and 981. […] This variability could be driven by interference of the compounds with the fluorescence readout or resorufin build-up as previously described.[27]
(§4) HEK293 cells (ATCC, UK) at passage 32 were a kind gift from Dr. Ben Allsop from the Translational Research Office at University College London. Cells were tested for mycoplasma using a MycoAlert Detection Kit (Lonza, Switzerland) as per manufacturer instructions, frozen stocks were stored in liquid nitrogen, and cells were re-tested whenever a new aliquot was thawed.
(§5) Cells were maintained in DMEM (Sigma-Aldrich, UK) supplemented with 10% heat-inactivated FBS (Sigma-Aldrich, UK), 1% GlutaMax (ThermoFisher, UK), and 1% sodium pyruvate (Lonza, UK) without antibiotics in an incubator at 37 °C and 5% CO2. Media was changed every 2 days, and cells were passaged every 3–4 days at a subcultivation ratio of 1:10, by detaching the cells with phenol-free TrypLE Express (ThermoFisher, UK), after washing with HBSS Ca^2+/Mg^2+ (ThermoFisher, UK). Up to 55 passages were used throughout the experiments.
(§6) (a) Cell seeding: At subculture, a dilute solution of cells was counted using Trypan Blue (Sigma-Aldrich, UK) and a hemocytometer. Cells were further diluted to 7000 or 50 000 cells/mL for experiments.
(§7) For recovery experiments, 700 cells (100 μL) were seeded in 96-well plates and incubated for 48 h while cells reached exponential phase.
(§8) For non-recovery experiments, 5000 cells (100 μL) were seeded in 96-well plates and incubated for 48 h while cells reached confluence. This is the same number of cells as per the CO-ADD protocol where 384-well plates were used, but we extended the growth time to 48 h to produce a similar confluency.
(§9) Stock solutions were diluted 100 times (to 1% DMSO) to 32 μg/mL in full medium (vortexed briefly) and then serially diluted using a digital pipet (Explorer, Eppendorf, Germany) at a dilution factor of 2 to a final concentration of […].
(§10) (c) Dosing experiments: At the specified time after seeding, media was removed from cells, cells were washed with HBSS Ca^2+/Mg^2+ (100 μL), and 100 μL of diluted compounds were added as per Supporting Information - Biology, Figure S4, and incubated for 24 h.
(§11) After treatment, solutions were removed, and cells were washed with HBSS Ca^2+/Mg^2+. For non-recovery experiments, viability was determined immediately as described below.
(§12) For recovery experiments, fresh media was added to plates (100 μL) and cells were returned to the incubator for another 72 h, after which viability was recorded as described below.
(§13) i. MTT assay: 3-[4,5-Dimethylthiazol-2-yl]-2,5-diphenyltetrazolium bromide (MTT) (Sigma-Aldrich, UK) was dissolved in sterile PBS at 5 mg/mL with sonication (20 min), protected from light. […]

Aqueous solubility = type: physicochemical; details: for solubility: thermodynamic from solid
[6] = Human liver microsome intrinsic clearance; type: in vitro ADME; details: human liver microsomes, NEU; for microsomal CLint: read-out: HLM CLint (NEU)
[7] = Rat hepatocyte intrinsic clearance; type: in vitro ADME
[8] = HEK293 toxicity, 96-well dose-response (UCL; MTT or resazurin, with or without recovery); type: cell-based, human; details: human, HEK293 cells; read-out: HEK293 CC50
Protocol: as §3, §4, §5, §6, §7, §8, §9, §10, §11, §12, §13

[9] = Human plasma protein binding (PPB); type: in vitro ADME; details: human, plasma
LogD7.4 (Chrom Log D) = type: physicochemical; details: chromatographic system (Chrom Log D); pH 7.4, NEU; read-out: LogD 7.4 (NEU)
Excerpt: To guide our initial SAR exploration work, we obtained liver microsomal intrinsic clearance data for 5 of the 18 compounds assayed by CO-ADD (Supporting Information - CDCO Report and Supporting Information - Biology). We then acquired intrinsic clearance (CLint), plasma protein binding (PPB), and solubility data on further compounds throughout the SAR campaign (Supporting Information - Biology, Tables S3 and S4). […] The more polar compounds (lower LogD) had reduced PPB and were more metabolically stable.
Table S4. ADME and Pharmacokinetics: compounds only appearing in the Supplementary […]
MRSA Aqueous HLM CLint Rat Hep CLint
Cmpd MIC Solubility Human PPB (%) (µL/min/mg (µL/min/10x6 LogD7.4
(µg/mL) (µM) protein) cells)
as §1

[10] = human plasma, NEU, read-out: Human PPB (NEU) (converted)
[11] = rat, hepatocytes, Figure 4, read-out: Rat Hep CLint
[12] = read-out: Human PPB (converted)
[13] = NEU, read-out: Aqueous Solubility (NEU)
[14] = rat hepatocytes, NEU, read-out: Rat Hep CLint (NEU)

| SMILES | MRC5 TC50 [1] [µg/mL] | MIC ([3]; read-out: MRSA MIC) [µg/mL] | PMM TC50 [4] [µg/mL] | MIC ([5]; read-out: VRE MIC) [µg/mL] | spread of Dmax values comparing recovery and non-recovery conditions (HEK293 cells) | MIC ([3]; UCL, read-out: MRSA MIC (UCL)) [µg/mL] | MIC ([5]; read-out: VRE MIC (UCL)) [µg/mL] | CC50 at 24 h [8] [µg/mL] | fraction unbound [9, 10] | chromatographic logD (LogD7.4 (Chrom Log D)) | solubility (Aqueous solubility; [13]) [µM] | microsomal CLint [6] [µL/min/mg] | hepatocyte CLint [7, 14] [µL/min/1e6 cells] | other results |
| --- | --- | --- | --- | --- | --- | --- | --- | --- | --- | --- | --- | --- | --- | --- |
| Fc1ccc(N(CC2CC2)c2c(-c3ccccn3)nc3ccccn23)cc1 [compound 979] | 2.8 | 2 (≈ 5.58 µM) | 1.4 | 4 (≈ 11.2 µM) | small difference | – | – | – | – | – | – | – | – | MIC ([2]; read-out: MSSA MIC): 2 µg/mL (≈ 5.58 µM); VRE MIC [5]: 4 µg/mL |
| Cc1ccc(-c2c(-c3ccccn3)nc3n2CCC3)cc1 [OSA_000865] | – | – | – | – | – | 4 (≈ 14.5 µM) | 16 (≈ 58.1 µM) | 2.1 (≈ 7.63 µM) | 0.084 | – | – | – | – | Aqueous Solubility (NEU) (Aqueous solubility; NEU): 32 µM; MIC ([2]; read-out: MSSA MIC (UCL)): 1 µg/mL (≈ 3.63 µM); HLM CLint (NEU) [6]: 82 uL/min/mg protein; Rat Hep CLint (NEU) ([7]; rat hepatocytes, NEU): 49.2 uL/min/10x6 cells |
| CC(C)CN(c1ccc(F)cc1)c1c(-c2ccccn2)nc2ccccn12 [compound 983] | 19.5 | 2 (≈ 5.55 µM) | 8.3 | 8 (≈ 22.2 µM) | small difference | – | – | – | – | – | – | – | – | solubility (Aqueous solubility; read-out: Aqueous Solubility): 8 µM (≈ 2.88 µg/mL); MIC ([2]; read-out: MSSA MIC): 4 µg/mL (≈ 11.1 µM); MIC ([3]; 16 h, read-out: MRSA MIC): 2 µg/mL (≈ 5.55 µM); hepatocyte CLint [7, 11]: 234 µL/min/1e6 cells; fraction unbound [9, 12]: 0.004 |
| Fc1ccc(Nc2c(-c3ccccn3)nc3sccn23)cc1 [compound 984] | 2.0 | – | 9.9 | – | small difference | – | – | – | – | – | – | – | – | MSSA MIC [2]: 4 µg/mL; MRSA MIC [3]: 8 µg/mL; VRE MIC [5]: 8 µg/mL |
| c1ccc(-c2nc3n(c2-c2ccc4occc4c2)CCC3)cc1 [OSA_000869] | – | – | – | – | – | > 32 | > 32 | 13.7 (≈ 45.6 µM) | 0.0031 | 4.2 | 21 (≈ 6.31 µg/mL) | 224 | 34.5 | – |
| c1cc(-c2nc3n(c2-c2ccc4occc4c2)CCC3)ccn1 [OSA_000862] | – | – | – | – | – | > 32 | > 32 | > 32 | 0.017 | 3.2 | 89 (≈ 26.8 µg/mL) | 36.8 | 44.5 | – |
| c1cncc(-c2nc3n(c2-c2ccc4occc4c2)CCC3)c1 [compound 861] | – | > 32 | – | > 32 | – | – | – | – | – | – | – | – | – | activity against MRSA, in words [3]: inactive; HEK293 toxicity classification, in words (HEK293 cells): least toxic; Dmax (100 – viability%) (HEK293 cells; at highest tested concentration 32 μg/mL, all experiment variations): < 50% |
| CCCN(c1ccc(F)cc1)c1c(-c2ccccn2)nc2ccccn12 [compound 982] | 1.5 | 2 (≈ 5.77 µM) | 0.7 | 4 (≈ 11.5 µM) | small difference | – | – | – | – | – | – | – | – | solubility (Aqueous solubility; read-out: Aqueous Solubility): 3 µM (≈ 1.04 µg/mL); MIC ([2]; read-out: MSSA MIC): 2 µg/mL (≈ 5.77 µM); MIC ([3]; 16 h, read-out: MRSA MIC): 2 µg/mL (≈ 5.77 µM); hepatocyte CLint [7, 11]: 108 µL/min/1e6 cells; VRE MIC [5]: 4 µg/mL; fraction unbound [9, 12]: 0.007 |
| c1cncc(-c2nc3n(c2-c2ccc4occc4c2)CCC3)c1 [OSA_000861] | – | – | – | – | – | > 32 | > 32 | > 32 | 0.015 | 3.2 | 344 (≈ 104 µg/mL) | 35.5 | 40.8 | – |
| c1ccc(-c2nc3ccccn3c2-c2ccc3sccc3c2)nc1 [OSA_000871] | – | – | – | – | – | 4 (≈ 12.2 µM) | 8 (≈ 24.4 µM) | 5.5 (≈ 16.8 µM) | 0.0074 | 3.3 | 6 (≈ 1.96 µg/mL) | 105 | > 300 | – |
| c1ccc(-c2nc3n(c2-c2ccc4occc4c2)CCC3)cc1 [compound 869] | – | > 32 | – | > 32 | small difference | – | – | – | – | – | – | – | – | activity against MRSA, in words [3]: inactive; HEK293 toxicity classification, in words (HEK293 cells): least toxic |
| c1cc(-c2nc3n(c2-c2ccc4occc4c2)CCC3)ccn1 [compound 862] | – | > 32 | – | > 32 | – | – | – | – | – | – | – | – | – | activity against MRSA, in words [3]: inactive; HEK293 toxicity classification, in words (HEK293 cells): least toxic; also recorded: non-toxic; toxicity in the acute exposure by MTT (HEK293 cells; no recovery, MTT): more than 50% |
